Reference: article PMC6856805, “Environmental Risk Assessment for the Active Pharmaceutical Ingredient Mycophenolic Acid in European Surface Waters” (Environmental Toxicology and Chemistry, 2019)

What was measured:
Danio rerio = assay: Fish partial life cycle test, OECD 210 early life stage phase (F1); assay type: in vivo
Procedure: At the highest tested concentration of 0.1 mg MPA/L nominal concentration (73 µg/L GMMC), only 2 of 75 hatched fish survived until the end of the test, showing that the test concentration range was well chosen. The most sensitive endpoints in this partial life cycle test were survival and growth in terms of length and mass of the young F1 fish; the effects were comparatively small but statistically significant at p = 0.05. In contrast, the F0 generation was impacted to a lesser extent.
In view of the mammalian mutagenicity and reprotoxicity, a fish partial life-cycle test (PLC; an OECD 229 short-term reproduction test followed by an OECD 210 early-life-stage test) was performed by ECT Oekotoxikologie under GLP with a series of concentrations of MPA in a flow-through setting with the zebrafish Danio rerio (Gilberg & Chambers 2018). Briefly, mature fish (F0 generation) in breeding groups of 14 fish were exposed to four concentrations of the test item (0.0005, 0.0029, 0.0171 and 0.100 mg MPA/L), in fish media as well as to controls without the test item, in two replicates per treatment including controls, for 23 days in a 14-hours light to 10-hours dark photoperiod (OECD 229 phase). During this time period, reproduction parameters (survival of parents, fecundity, e.g., number of eggs, fertility and embryo viability/hatchability) of zebrafish exposed to the test item were assessed in comparison with the controls to determine the lowest observed effect concentration (LOEC) and the NOEC. After 23 days, newly fertilised eggs of the F1 generation were collected and exposed to the corresponding series of test item concentrations, 20 eggs in four replicates each per treatment including controls, until 30 days post-hatch (OECD 210 phase). Lethal and sublethal effects of the test item on eggs, larvae and juvenile fish exposed to the test item were assessed in comparison with controls to determine the LOEC and the NOEC. Samples were taken and analysed by LC–MS/MS (Supplemental Information) and the GMMC for the concentrations determined. Statistical check were made using Probit analyses, Weibull analyses, 2- and 3-parameter normal CDF, Shapiro-Wilk’s test on normal distribution, Levene’s test on variance homogeneity, Fisher's Exact Binomial test, Chi² 2×2 Table Test, Welsh t-test, Step-down Cochran-Armitage test Procedure, Williams Multiple Sequential t-test Procedure and Dunnett`s Multiple t-test Procedure.

[1] = test system: Rhaphidocelis (Pseudokirchneriella) subcapitata; conditions: cited from earlier work
Screening vapor pressure = assay type: physicochemical
Description: (§1) Syntex derived many basic physicochemical properties for both MPM and MPA in the early 1990s. The results for MPA are mostly given in the present study.
The vapour pressure of MPA was estimated by Syntex by comparing losses of MPA under a nitrogen stream with losses in capped vials and comparing the results with the same losses of a reference substance of known vapour pressure (Young & Licato 1994a).

[2] = Screening hydrolysis test; assay type: physicochemical; conditions: 5 d
Procedure: as §1
A screening hydolysis test was performed by Syntex with MPA in 0.1 M buffered solutions in triplicate at pH 5, 7 and 9 over 5 days at 50 °C, with HPLC determination of MPA at the start and end of the exposure, 'closely following US Food and Drug Administration 1987 Environmental Assessment Technical Assistance Handbook recommendations' (Young & Licato 1994b).

Artemia salina = test system: Artemia salina; design: method as in earlier work; conditions: non‐GLP; ref Ďuračková et al. 1977; cited from earlier work

## COc1c(C)c2c(c(O)c1CC=C(C)CCC(=O)O)C(=O)OC2 [MPA, 6‐(1,3‐dihydro‐4‐hydroxy‐6‐methoxy‐7‐methyl‐3‐oxo‐5‐isobenzofuranyl)‐4‐methyl‐4‐hexenoic acid]
Danio rerio; 0.1 mg MPA/L nominal (73 µg/L GMMC)
  hatched fish surviving until the end of the test: 2 of 75
Danio rerio; 34 d phase
  EC10, hatching success: > 73 µg GMMC MPA/L
Danio rerio; 34 d phase, GMMC
  NOEC, hatching success: 73 µg/L
Danio rerio; Danio rerio, in vivo, 57 d
  lowest EC10: 5.8 µg MPA/L
  overall NOEC for all endpoints in both F0 and F1 generations: 1.32 µg MPA/L
Danio rerio; F1, GMMC
  EC10, posthatch success (survival) and number of healthy fish: 5.8 µg MPA/L
  NOEC, posthatch success (survival) and number of healthy fish: 10.9 µg MPA/L
Danio rerio; GMMC
  EC10, length of the surviving F1 fish: 31.9 µg MPA/L
  EC10, wet weight of the surviving F1 fish: 10.6 µg MPA/L
  NOEC, length of the surviving F1 fish: 1.32 µg/L
  NOEC, wet weight of the surviving F1 fish: 1.32 µg/L
[1]; GMMC, 24 h dark + 72 h light, ref European Chemicals Agency 2018
  ErC50: 68 µg/L
[1]
  ErC10: 12 µg/L
  NOErC: 9 µg/L
Screening vapor pressure
  Vapor pressure: < 10^–6 hPa
[2]; pH 5, 50 °C
  Screening hydrolysis: 46.15 % Substance loss
[2]; pH 7, 50 °C
  Screening hydrolysis: 29.03 % Substance loss
[2]; pH 9, 50 °C
  Screening hydrolysis: 36.67 % Substance loss
Artemia salina
  16‐h LC50: 98.4 mg MPA/L
